# Square brackets hold non-standard residues; d marks the D form. Peptide text beside a SMILES is read from it. * marks the point of attachment. Dolaproine = CO[C@@H]([C@@H]1CCCN1)[C@@H](C)C(=O)O; Dil = CC[C@H](C)[C@H](NC)[C@@H](CC(=O)O)OC; X1 = C[C@@H](N*)[C@@H](O)c1ccccc1; NMeV = CN[C@H](C(=O)O)C(C)C
# Experiments:
# [1] = tested on: human endometrial cancer cell HEC-1A; test: Cytotoxicity test of conjugate LDC12B; type: cell-based; conditions: incubated 15-30 min, then 2-3 days
# Experimental: (§1) Culture medium: RPMI 1640 Medium, no folic acid
# (§2) 1) human endometrial cancer cell HEC-1A, human gastric cancer cell line GTL-16, human colon carcinoma HCT-116, human neuroblastoma cell line SH-SY5Y were incubated at 37° C., 5% CO2 in RPMI 1640 medium containing 10% fetal bovine serum, the cells were passaged every 2-3 days.
# (§3) 2) human endometrial cancer cell HEC-1A, human gastric cancer cell line GTL-16, Human colon carcinoma HCT-116, human neuroblastoma cell line SH-SY5Y were plated at 1×10^3 cells per well (96-well plate) and incubated for 8-12 h at 37° C., 5% CO2.
# (§4) 3) Stock solutions of LDC conjugates or control were prepared in PBS solution. 100 μL/well of serially diluted LDC conjugates or control was added to the cells in the plate and incubated for 15-30 min at 37° C., 5% CO2. The culture medium in the wells was then removed by aspiration and the cells were incubated in fresh culture medium without conjugates (150 μL/well) for 2-3 days at 37° C., 5% CO2.
# (§5) 4) CellTiter 96® Aqueous One Solution Cell Proliferation Assay (Promega) was added to each well to measure the amount of […] cells, and the plate was incubated in an incubator for 1 h at 37° C., 5% CO2.
# (§6) 5) the plate was read at 490 nm on a microplate reader, and the cell survivals were compared for cells with or without the treatment of LDC conjugates. The LDC drug concentrations that are required for 50% cell death (IC50 values) were determined.
# [2] = tested on: human colon carcinoma HCT-116; test: Cytotoxicity test of conjugate LDC12B; type: cell-based; conditions: HCT-116, incubated 15-30 min, then 2-3 days
# Experimental: as §1, §2, §3, §4, §5, §6
# [3] = tested on: human gastric cancer cell line GTL-16; test: Cytotoxicity test of conjugate LDC12B; type: cell-based; conditions: GTL-16, incubated 15-30 min, then 2-3 days
# Experimental: as §1, §2, §3, §4, §5, §6
# [4] = tested on: human neuroblastoma cell line SH-SY5Y; test: Cytotoxicity test of conjugate LDC12B; type: cell-based; conditions: incubated 15-30 min, then 2-3 days
# Experimental: as §1, §2, §3, §4, §5, §6
# [5] = tested on: ovarian cancer cell SKOV3; test: Cytotoxicity test of conjugate LDC10B; type: cell-based, human; conditions: SKOV3, Incubation Time 30 min
# Experimental: as §1
# (§7) 1) human nasopharyngeal cancer cell line KB, melanoma cell line A375, human lung cancer cell H1299, chronic myeloid leukemia cell line K562, human lung cancer cell H460, ovarian cancer cell SKOV3, breast cancer cell line HCC1954, human gastric cancer cell N87, and human breast cancer cell SK-BR-3 were incubated at 37° C., 5% CO2 in RPMI 1640 medium containing 10% fetal bovine serum, the cells were passaged every 2-3 days.
# (§8) 2) human nasopharyngeal cancer cell line KB, melanoma cell line A375, human lung cancer cell H1299, chronic myeloid leukemia cell line K562, human lung cancer cell H460, ovarian cancer cell SKOV3, breast cancer cell line HCC1954, human gastric cancer cell N87, and human breast cancer cell SK-BR-3 were plated at 1×10^3 cells per well (96-well plate) and incubated for 8-12 h at 37° C., 5% CO2.
# (§9) 3) Stock solutions of LDC conjugates or controls were prepared in PBS solution. 100 μL/well of serially diluted LDC conjugates or controls was added to the test cells in the plates and incubated for 15-30 min at 37° C., 5% CO2. The culture medium in the wells was then removed by aspiration and the test cells were incubated in fresh culture medium without conjugates (150 μL/well) for 2-3 days at 37° C., 5% CO2.
# (§10) 4) CellTiter 96® Aqueous One Solution Cell Proliferation Assay (Promega) was added to each well to measure the amount of […] cells, and each plate was incubated in an incubator for 1 h at 37° C., 5% CO2.
# (§11) 5) Each plate was read at 490 nm on a microplate reader, and the cell survivals were compared for test cells with or without the treatment of LDC conjugates. The LDC drug concentrations that are required for 50% cell death (IC50 values) were determined.
# [6] = tested on: breast cancer cell line HCC1954; test: Cytotoxicity test of conjugate LDC10B; type: cell-based, human; conditions: HCC1954, Incubation Time 30 min
# Experimental: as §1, §7, §8, §9, §10, §11
# [7] = tested on: human lung cancer cell H460; test: Cytotoxicity test of conjugate LDC11B; type: cell-based; conditions: H460, incubated 15-30 min, then 2-3 days
# Experimental: as §1
# (§12) 1) human lung cancer cell H460, ovarian cancer cell SKOV3, human embryonic kidney cell 293A were incubated at 37° C., 5% CO2 in RPMI 1640 medium containing 10% fetal bovine serum, the cells were passaged every 2-3 days.
# (§13) 2) human lung cancer cell H460, ovarian cancer cell SKOV3, human embryonic kidney cell 293A were plated at 1×10^3 cells per well (96-well plate) and incubated for 8-12 h at 37° C., 5% CO2.
# as §4, §5
# (§14) 5) The plate was read at 490 nm on a microplate reader, and the cell survivals were compared for cells with or without the treatment of LDC conjugates. The LDC drug concentrations that are required for 50% cell death (IC50 values) were determined.
# [8] = tested on: human embryonic kidney cell 293A; test: Cytotoxicity test of conjugate LDC11B; type: cell-based; conditions: incubated 15-30 min, then 2-3 days
# Experimental: as §1, §12, §13, §4, §5, §14
# [9] = tested on: human lung cancer cell H460; test: Cytotoxicity test of conjugate LDC10H; type: cell-based; conditions: H460, incubated 15-30 min, then 2-3 days
# Experimental: as §1
# (§15) 1) human lung cancer cell H1299, ovarian cancer cell SKOV3, breast cancer cell line HCC1954, and human lung cancer cell H460 were incubated at 37° C., 5% CO2 in RPMI 1640 medium containing 10% fetal bovine serum, the cells were passaged every 2-3 days.
# (§16) 2) human lung cancer cell H1299, ovarian cancer cell SKOV3, breast cancer cell line HCC1954, and human lung cancer cell H460 were plated at 1×10^3 cells per well (96-well plate) and incubated for 8-12 h at 37° C., 5% CO2.
# as §4, §5, §6
# [10] = tested on: human lung cancer cell H1299; test: Cytotoxicity test of conjugate LDC10H; type: cell-based; conditions: H1299, incubated 15-30 min, then 2-3 days
# Experimental: as §1, §15, §16, §4, §5, §6
# [11] = tested on: human endometrial cancer cell HEC-1A; test: Cytotoxicity test of conjugate LDC13B; type: cell-based; conditions: incubated 15-30 min, then 2-3 days
# Experimental: as §1
# (§17) 1) human nasopharyngeal cancer cell line KB, human colon carcinoma HCT-116, human prostatic cancer cell PC-3, human gastric cancer cell line GTL-16, human endometrial cancer cell HEC-1A, and human gastric cancer cell N87 were incubated at 37° C., 5% CO2 in RPMI 1640 medium containing 10% fetal bovine serum, the cells were passaged every 2-3 days.
# (§18) 2) human nasopharyngeal cancer cell line KB, human colon carcinoma HCT-116, human prostatic cancer cell PC-3, human gastric cancer cell line GTL-16, human endometrial cancer cell HEC-1A, and human gastric cancer cell N87 were plated at 1×10^3 cells per well (96-well plate) and incubated for 8-12 h at 37° C., 5% CO2.
# as §4, §5, §6
# [12] = tested on: human colon carcinoma HCT-116; test: Cytotoxicity test of conjugate LDC13B; type: cell-based; conditions: HCT-116, incubated 15-30 min, then 2-3 days
# Experimental: as §1, §17, §18, §4, §5, §6
# [13] = tested on: human nasopharyngeal cancer cell line KB; test: Cytotoxicity test of conjugate LDC13B; type: cell-based; conditions: KB, incubated 15-30 min, then 2-3 days
# Experimental: as §1, §17, §18, §4, §5, §6
# [14] = tested on: human prostatic cancer cell PC-3; test: Cytotoxicity test of conjugate LDC13B; type: cell-based; conditions: PC-3, incubated 15-30 min, then 2-3 days
# Experimental: as §1, §17, §18, §4, §5, §6
# [15] = tested on: human gastric cancer cell N87; test: Cytotoxicity test of conjugate LDC13B; type: cell-based; conditions: N87, incubated 15-30 min, then 2-3 days
# Experimental: as §1, §17, §18, §4, §5, §6
structure (smiles),measurement,setting,value
CC[C@H](C)[C@@H]([C@@H](CC(=O)N1CCC[C@H]1[C@H](OC)[C@@H](C)C(=O)N[C@H](C)[C@@H](O)c1ccccc1)OC)N(C)C(=O)[C@@H](NC(=O)[C@@H](NC)C(C)C)C(C)C [MMAE] (H-[NMeV]V[Dil][Dolaproine]-X1),IC50,[1],8.74 nM
same,IC50,[2],12.7 nM
same,IC50,[3],6.38 nM
same,IC50,[4],24 nM
same,IC50,[5],0.62 nM
same,IC50,[6],0.45 nM
same,IC50,[7],0.58 nM
same,IC50,[8],0.86 nM
same,IC50,[9],0.56 nM
same,IC50,[10],0.71 nM
same,IC50,[11],8.74 nM
same,IC50,[12],12.7 nM
same,IC50,[13],28.8 nM
same,IC50,[14],12.8 nM
same,IC50,[15],3.83 nM

# Reference: patent US11571480B2, “Multi-ligand drug conjugates and uses thereof” (priority 2015, dated 2023)
